“And” between values parts separate entries of the source, which are not always exact repeats. Equal values may be shown once. Toxic doses and inconclusive results are not listed.
Tested on: CD2F1 mice, L1210 leukemia ip, survival T/C
Experiment: NCI In Vivo Anticancer Drug Screen. Data for tumor model L1210 Leukemia (intraperitoneal) in CD2F1 (CDF1) mice
Details: higher = longer survival
Outline: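 Mice carrying a transplanted tumor received test compound or vehicle alone. The value is the measurement in the treated group divided by that in the vehicle-treated control group.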

[1] = endpoint: mean survival time, dose: 12.5 mg/kg/injection, schedule: Q01DX009 (ip), vehicle: Klucel (hydroxypropylcellulose) (HPC)
[2] = endpoint: mean survival time, dose: 25.0 mg/kg/injection, schedule: Q01DX009 (ip), vehicle: Klucel (hydroxypropylcellulose) (HPC)
[3] = endpoint: mean survival time, dose: 50.0 mg/kg/injection, schedule: Q01DX009 (ip), vehicle: Klucel (hydroxypropylcellulose) (HPC)
[4] = endpoint: mean survival time, dose: 100.0 mg/kg/injection, schedule: Q04DX003 (ip), vehicle: saline with Tween-80
[5] = endpoint: mean survival time, dose: 200.0 mg/kg/injection, schedule: Q04DX003 (ip), vehicle: saline with Tween-80
[6] = endpoint: mean survival time, dose: 400.0 mg/kg/injection, schedule: Q04DX003 (ip), vehicle: saline with Tween-80
[7] = endpoint: mean survival time, dose: 25.0 mg/kg/injection, schedule: Q01DX009 (ip), vehicle: saline
[8] = endpoint: mean survival time, dose: 100.0 mg/kg/injection, schedule: Q01DX009 (ip), vehicle: saline
[9] = endpoint: mean survival time, dose: 100.0 mg/kg/injection, schedule: Q01DX009 (ip), vehicle: saline with Tween-80
[10] = endpoint: mean survival time, dose: 200.0 mg/kg/injection, schedule: Q01DX009 (ip), vehicle: saline with Tween-80
[11] = endpoint: mean survival time, dose: 200.0 mg/kg/injection, schedule: Q01DX009 (ip), vehicle: saline
[12] = endpoint: mean survival time, dose: 25.0 mg/kg/injection, schedule: Q01DX009 (ip), vehicle: saline with Tween-80
[13] = endpoint: mean survival time, dose: 50.0 mg/kg/injection, schedule: Q01DX009 (ip), vehicle: saline with Tween-80
[14] = endpoint: mean survival time, dose: 400.0 mg/kg/injection, schedule: Q01DX009 (ip), vehicle: saline with Tween-80

For `CNC(=O)OCc1c(COC(=O)NC)c(-c2ccc(Cl)c(Cl)c2)n2c1CCC2`, the T/C [1] was 109 % of control, the T/C [2] was 110 % of control and the T/C [3] was 107 % of control. The T/C (endpoint: mean survival time, dose: 100.0 mg/kg/injection, schedule: Q01DX009 (ip), vehicle: Klucel (hydroxypropylcellulose) (HPC)) was 105 % of control.
`O=C(O)CCC1C2C=CC(C2)C1C(=O)O` (stereo unspecified) was tested, and the T/C [4] was 96 % of control, the T/C [5] was 96 % of control and the T/C [6] was 98 % of control.
With `CC1=C(C#[N+][O-])C(C)(C)CCC1` the T/C (endpoint: mean survival time, dose: 75.0 mg/kg/injection, schedule: Q01DX001 (ip), vehicle: other) was 102 % of control, the T/C (endpoint: mean survival time, dose: 150.0 mg/kg/injection, schedule: Q01DX001 (ip), vehicle: other) was 97 % of control and the T/C (endpoint: mean survival time, dose: 300.0 mg/kg/injection, schedule: Q01DX001 (ip), vehicle: other) was 105 % of control.
With `N=C(N)c1ccc(Nc2ccc(C(=N)N)cc2)cc1` the T/C (endpoint: mean survival time, dose: 3.0 mg/kg/injection, schedule: Q01DX009 (ip), vehicle: saline) was 96 % of control and 100 % of control, the T/C (endpoint: mean survival time, dose: 6.0 mg/kg/injection, schedule: Q01DX009 (ip), vehicle: saline) was 100 % of control and 101 % of control and the T/C (endpoint: mean survival time, dose: 12.0 mg/kg/injection, schedule: Q01DX009 (ip), vehicle: saline) was 93 % of control and 95 % of control. For the same compound, the T/C (endpoint: mean survival time, dose: 24.0 mg/kg/injection, schedule: Q01DX009 (ip), vehicle: saline) was 98 % of control.
In the case of `C[N+](C)(C)c1cccc(S)c1`, the T/C (endpoint: mean survival time, dose: 100.0 mg/kg/injection, schedule: Q04DX002 (ip), vehicle: saline with Tween-80) is reported as 104 % of control, the T/C (endpoint: mean survival time, dose: 200.0 mg/kg/injection, schedule: Q04DX002 (ip), vehicle: saline with Tween-80) is reported as 112 % of control and the T/C (endpoint: mean survival time, dose: 400.0 mg/kg/injection, schedule: Q04DX002 (ip), vehicle: saline with Tween-80) is reported as 100 % of control.
`CCN(CC)CCCC(C)Nc1ncnc(N)c1[N+](=O)[O-]` (stereo unspecified) was tested, and the T/C [7] was 103 % of control, the T/C (endpoint: mean survival time, dose: 25.0 mg/kg/injection, schedule: Q04DX003 (ip), vehicle: saline) was 106 % of control and the T/C (endpoint: mean survival time, dose: 50.0 mg/kg/injection, schedule: Q01DX009 (ip), vehicle: saline) was 92 % of control. The T/C (endpoint: mean survival time, dose: 50.0 mg/kg/injection, schedule: Q04DX003 (ip), vehicle: saline) was 111 % of control, the T/C [8] was 95 % of control and the T/C (endpoint: mean survival time, dose: 100.0 mg/kg/injection, schedule: Q04DX003 (ip), vehicle: saline) was 104 % of control.
For `O=P(OCc1ccccc1)(N(CCCl)CCCl)N1CCN(P(=O)(OCc2ccccc2)N(CCCl)CCCl)CC1` (stereo unspecified), the T/C (endpoint: mean survival time, dose: 128.0 mg/kg/injection, schedule: Q01DX Z (ip), vehicle: saline) was 104 % of control, the T/C (endpoint: mean survival time, dose: 256.0 mg/kg/injection, schedule: Q01DX Z (ip), vehicle: saline) was 107 % of control and the T/C (endpoint: mean survival time, dose: 512.0 mg/kg/injection, schedule: Q01DX Z (ip), vehicle: saline) was 113 % of control.
`O=C(OCC1OC(n2cc(C(F)(F)F)c(=O)[nH]c2=O)CC1OC(=O)c1ccc([N+](=O)[O-])cc1)c1ccc([N+](=O)[O-])cc1` (stereo unspecified) was tested, and the T/C (endpoint: median survival time, dose: 25.0 mg/kg/injection, schedule: Q01DX009 (ip), vehicle: Klucel (hydroxypropylcellulose) (HPC)) was 116 % of control and the T/C (endpoint: median survival time, dose: 50.0 mg/kg/injection, schedule: Q01DX009 (ip), vehicle: Klucel (hydroxypropylcellulose) (HPC)) was 113 % of control.
With `Cc1ccccc1N1C(=O)CSC1=S` the T/C [9] was 98 % of control and the T/C [10] was 106 % of control.
With `CCCC(O)C[N+](=O)[O-]` (stereo unspecified) the T/C [8] was 104 % of control and the T/C [11] was 111 % of control.
`Cc1cc(Br)ccc1[NH-].Cc1cc(Br)ccc1[NH-].[Cl][Pt+2][Cl]` was tested, and the T/C (endpoint: mean survival time, dose: 8.8 mg/kg/injection, schedule: Q04DX003 (ip), vehicle: saline with Tween-80) was 97 % of control, the T/C (endpoint: mean survival time, dose: 17.5 mg/kg/injection, schedule: Q04DX003 (ip), vehicle: saline with Tween-80) was 97 % of control and the T/C (endpoint: mean survival time, dose: 35.0 mg/kg/injection, schedule: Q04DX003 (ip), vehicle: saline with Tween-80) was 97 % of control. The T/C (endpoint: mean survival time, dose: 70.0 mg/kg/injection, schedule: Q04DX003 (ip), vehicle: saline with Tween-80) was 109 % of control.
For `c1ccc(CCC2=Nc3ccccc3CO2)cc1`, the T/C [4] was 102 % of control, the T/C [5] was 103 % of control and the T/C [6] was 102 % of control.
With `C1N2CN3CN1CN(C2)C3.[Cl][Pt]([Cl])[Cl]` the T/C (endpoint: mean survival time, dose: 3.13 mg/kg/injection, schedule: Q04DX003 (ip), vehicle: distilled water + Tween-80) was 103 % of control, the T/C (endpoint: mean survival time, dose: 6.25 mg/kg/injection, schedule: Q04DX003 (ip), vehicle: distilled water + Tween-80) was 108 % of control and the T/C (endpoint: mean survival time, dose: 12.5 mg/kg/injection, schedule: Q04DX003 (ip), vehicle: distilled water + Tween-80) was 109 % of control. For the same compound, the T/C (endpoint: mean survival time, dose: 25.0 mg/kg/injection, schedule: Q04DX003 (ip), vehicle: distilled water + Tween-80) was 108 % of control and the T/C (endpoint: mean survival time, dose: 50.0 mg/kg/injection, schedule: Q04DX003 (ip), vehicle: distilled water + Tween-80) was 115 % of control.
For `O=S(=O)(Cl)C(Cl)(Cl)Cl`, the T/C [12] was 96 % of control, the T/C [13] was 102 % of control and the T/C (endpoint: mean survival time, dose: 50.0 mg/kg/injection, schedule: Q04DX003 (ip), vehicle: saline with Tween-80) was 97 % of control. The T/C [9] was 95 % of control and the T/C [4] was 94 % of control.
`COC1OC2COc3ccccc3OC2C2N=C(N)SC12` (stereo unspecified) was tested, and the T/C (endpoint: mean survival time, dose: 100.0 mg/kg/injection, schedule: Q01DX001 (ip), vehicle: saline with Tween-80) was 100 % of control and the T/C (endpoint: mean survival time, dose: 200.0 mg/kg/injection, schedule: Q01DX001 (ip), vehicle: saline with Tween-80) was 97 % of control.
`CN(C)C=C1C(=O)NC(=O)NC1=O` was tested, and the T/C (endpoint: mean survival time, dose: 100.0 mg/kg/injection, schedule: Q01DX001 (ip), vehicle: saline) was 91 % of control and the T/C (endpoint: mean survival time, dose: 200.0 mg/kg/injection, schedule: Q01DX001 (ip), vehicle: saline) was 87 % of control.
In the case of `Nc1nn[nH]n1`, the T/C [9] is reported as 95 % of control, the T/C [10] is reported as 90 % of control and the T/C [14] is reported as 94 % of control.
With `O=c1c(Cl)c(Cl)cnn1-c1ccc([N+](=O)[O-])cc1[N+](=O)[O-]` the T/C (endpoint: mean survival time, dose: 100.0 mg/kg/injection, schedule: Q01DX001 (ip), vehicle: other) was 88 % of control, the T/C (endpoint: mean survival time, dose: 200.0 mg/kg/injection, schedule: Q01DX001 (ip), vehicle: other) was 88 % of control and the T/C (endpoint: mean survival time, dose: 400.0 mg/kg/injection, schedule: Q01DX001 (ip), vehicle: other) was 94 % of control.
`NC(CCC(=O)NC(CSC(c1ccccc1)(c1ccccc1)c1ccc(F)cc1)C(=O)NCC(=O)O)C(=O)O` (stereo unspecified) was tested, and the T/C [7] was 120 % of control and the T/C [11] was 150 % of control.
`CC(C)(C)C1CCC(S(=O)c2ccc([N+](=O)[O-])cc2[N+](=O)[O-])CC1` (stereo unspecified) was tested, and the T/C [9] was 90 % of control, the T/C [4] was 94 % of control and the T/C [10] was 91 % of control. The T/C [5] was 98 % of control, the T/C [14] was 86 % of control and the T/C [6] was 88 % of control.
`Cc1cc(-c2ccccc2)cc(=S)[nH]1` was tested, and the T/C (endpoint: mean survival time, dose: 100.0 mg/kg/injection, schedule: Q01DX001 (ip), vehicle: carboxymethylcellulose (CMC)) was 88 % of control, the T/C (endpoint: mean survival time, dose: 200.0 mg/kg/injection, schedule: Q01DX001 (ip), vehicle: carboxymethylcellulose (CMC)) was 94 % of control and the T/C (endpoint: mean survival time, dose: 400.0 mg/kg/injection, schedule: Q01DX001 (ip), vehicle: carboxymethylcellulose (CMC)) was 95 % of control.
With `CC(=O)OCC1(C)NC(=O)c2ccccc2O1` (stereo unspecified) the T/C (endpoint: mean survival time, dose: 12.5 mg/kg/injection, schedule: Q01DX009 (ip), vehicle: saline with Tween-80) was 93 % of control and 112 % of control, the T/C [12] was 93 % of control and 101 % of control and the T/C [13] was 98 % of control and 103 % of control. The T/C [9] was 118 % of control and 100 % of control, the T/C [10] was 95 % of control and 106 % of control and the T/C [14] was 115 % of control.
In the case of `CC1(C)C(=O)C(C)(C)C1=NNc1ccc([N+](=O)[O-])cc1[N+](=O)[O-]`, the T/C (endpoint: median survival time, dose: 50.0 mg/kg/injection, schedule: Q04DX002 (ip), vehicle: saline with Tween-80) is reported as 90 % of control, the T/C (endpoint: median survival time, dose: 100.0 mg/kg/injection, schedule: Q04DX002 (ip), vehicle: saline with Tween-80) is reported as 100 % of control and the T/C (endpoint: median survival time, dose: 200.0 mg/kg/injection, schedule: Q04DX002 (ip), vehicle: saline with Tween-80) is reported as 90 % of control. For the same compound, the T/C (endpoint: median survival time, dose: 400.0 mg/kg/injection, schedule: Q04DX002 (ip), vehicle: saline with Tween-80) was 100 % of control.
With `Cc1cc[n+](C)c(-c2ccccc2)c1` the T/C (endpoint: mean survival time, dose: 6.25 mg/kg/injection, schedule: Q01DX009 (ip), vehicle: saline sonified) was 100 % of control, the T/C (endpoint: mean survival time, dose: 12.5 mg/kg/injection, schedule: Q01DX009 (ip), vehicle: saline sonified) was 101 % of control and the T/C (endpoint: mean survival time, dose: 25.0 mg/kg/injection, schedule: Q01DX009 (ip), vehicle: saline sonified) was 109 % of control.
With `O=C(Nc1ccc2c(c1)Cc1cccc(NC(=O)C(Cl)Cl)c1-2)C(Cl)Cl` the T/C [1] was 90 % of control, the T/C [2] was 93 % of control and the T/C [3] was 87 % of control.

Reference: PubChem BioAssay AID256 (DTP/NCI, 2004)
